The results in this text go back to US11370771B2, “Inhibitors of TRPC6” (Boehringer Ingelheim International GmbH, priority 2018, dated 2022).

Assay [1] addresses T1, human TRPC6 (Homo sapiens, UniProt Q9Y210).
T1 construct: expressed in transfected cells
T1 sequence (Q9Y210 1-931): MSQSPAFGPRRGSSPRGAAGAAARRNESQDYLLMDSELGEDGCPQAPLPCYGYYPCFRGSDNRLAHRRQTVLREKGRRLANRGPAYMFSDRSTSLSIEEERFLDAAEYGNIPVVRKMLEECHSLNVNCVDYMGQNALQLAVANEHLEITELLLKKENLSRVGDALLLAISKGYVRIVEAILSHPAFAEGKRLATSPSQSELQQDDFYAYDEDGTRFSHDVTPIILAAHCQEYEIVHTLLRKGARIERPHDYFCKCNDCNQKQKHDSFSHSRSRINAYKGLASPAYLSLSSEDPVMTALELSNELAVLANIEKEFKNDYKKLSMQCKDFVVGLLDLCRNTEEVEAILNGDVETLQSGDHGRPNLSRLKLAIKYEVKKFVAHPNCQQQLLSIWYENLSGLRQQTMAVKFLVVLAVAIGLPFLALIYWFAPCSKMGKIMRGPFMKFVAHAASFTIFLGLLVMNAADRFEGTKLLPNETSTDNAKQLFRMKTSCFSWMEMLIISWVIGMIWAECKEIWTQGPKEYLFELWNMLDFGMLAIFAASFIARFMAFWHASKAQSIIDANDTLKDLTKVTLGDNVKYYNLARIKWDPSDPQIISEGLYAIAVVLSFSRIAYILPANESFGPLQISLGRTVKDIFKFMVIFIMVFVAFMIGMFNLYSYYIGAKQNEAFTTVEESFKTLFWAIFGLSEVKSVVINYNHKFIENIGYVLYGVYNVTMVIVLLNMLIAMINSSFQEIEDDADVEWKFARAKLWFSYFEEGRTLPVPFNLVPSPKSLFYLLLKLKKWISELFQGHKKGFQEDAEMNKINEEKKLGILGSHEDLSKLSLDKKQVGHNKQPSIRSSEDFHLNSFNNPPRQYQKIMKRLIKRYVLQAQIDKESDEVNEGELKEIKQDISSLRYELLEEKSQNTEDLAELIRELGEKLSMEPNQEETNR
Put plainly: High Throughput Screening Assay Method 1 (FLIPR membrane potential dye, OAG activation, HEK293 cells expressing human TRPC6). Format: cell-based. To be noted: antagonist effect against human TRPC6, 60 μM OAG, read-out: Fluorescence TRPC6 IC50. From the text: (§1) This screening assay measures TRPC6 (transient receptor potential cation channel, subfamily C, member 6) ion channel activation via addition either of the commercially available DAG ligand analogue OAG (1-oleoyl-2-acetyl-sn-glycerol) or of the TRPC6 agonist 1-[1-(4,5,6,7,8-pentahydrocyclohepta[2,1-d]thiophen-2-ylcarbonyl)-4-piperidyl]-3-hydrobenzimidazol-2-one (GSK1702934A). The assay utilizes a FLIPR membrane potential (FMP) dye from Molecular Devices, which is a voltage sensitive indicator with a fluorescent quencher. Changes in membrane potential as measured by the fluorescent signal increase during membrane depolarization provide a measurement of channel activity.
The commercially available HEK293 cell line expressing human TRPC6 channel (Axxam/PerkinElmer) is scaled up in bulk and frozen in liquid nitrogen. Frozen cell stocks are thawed and re-suspended in culture media as recommended by the manufacturer supplemented with 0.5 mg/ml of geneticin to promote retention of the TRPC6 construct. Cells are plated at a density of 15,000 cells/well in Greiner 384 well poly-D-lysine coated black clear bottom plates, and incubated for 18-20 h at 37° C. and 5% CO2. To initiate the assay, the growth media is removed using a plate washer and 25 ul of a FMP dye mix is added to each well. The 4× stock FMP dye from the manufacturer is diluted 1× with assay buffer (low calcium Tyrode's assay buffer: 130 mM NaCl, 5 mM KCl, 0.15 mM CaCl2), 1 mM MgCl2, 5 mM NaHCO3, 20 mM HEPES pH 7.4) containing 36 μM BAPTA/AM. The cells are incubated at room temperature (19-22° C.) for 30 minutes. For the screening assay, 5 uL of diluted compound stock is added to each well and incubated for 15 minutes at room temperature (19-22° C.). Using the Hamamatsu FDSS6000 or FDSS7000, 10 uL of the synthetic, membrane permeant analog of 1,2 diacylglycerol (DAG), 1-oleoyl-2-acetoyl-n-glycerol (OAG), is added and fluorescent readings taken every second from 50 seconds to 3 minutes. […] Controls and blanks consisted of HEK293 TRPC6 cells that are exposed to OAG. A reference inhibitor added along with the test compound is included as part of the blanks. This inhibitor suppresses the TRPC6 channel activation. These controls set the screening window, and “hits” are defined as those compounds inhibiting the membrane depolarization caused by OAG by at least 50%. IC50 values are determined for compounds that meet these criteria by titrating compound stock at a final starting concentration of 30 μM using a 3-fold serial dilution for 11 points. Curves are generated by fitting each data set to a four-parameter logistic equation using nonlinear regression.

For assay [2], the target named is T1, human TRPC6. Put plainly: High Throughput Screening Assay Method 2 (membrane potential dye, GSK1702934A agonist, HEK293 stably transfected with human TRPC6). Format: cell-based. The conditions noted are these: antagonist effect against human TRPC6, 3 μM GSK1702934A agonist, HEK293 TRPC6 cells, read-out: Fluorescence TRPC6 IC50.
From the text: as §1
The commercially available HEK293 cell line (ATCC) was stably transfected with an human TRPC6 gene construct in pcDNA3.1(+) (Thermo Fisher) and screened to find a clone with TRPC6 expression. These cells were maintained in growth medium recommended by the manufacturer supplemented with 400 μg/ml G418 to promote retention of the TRPC6 construct. After growing to near confluency, cells were plated at a density of 15,000 cells/well in clear bottom black walled poly-D-Lys coated 384-well tissue culture treated plates (TwinHelix, cat. #GR 4332 CPL) in growth medium lacking G418, and allowed to grow for 24 hrs. Growth media was removed from the wells and cells were then loaded with 20 μL of 0.5× Membrane Potential sensitive dye (Molecular Devices) in the presence of 30 μM BAPTA-AM (Invitrogen) in Tyrode's assay buffer (130 mM NaCl, 5 mM KCl, 0.15 mM CaCl2), 1 mM MgCl2, 5 mM NaHCO3, 20 mM HEPES, pH 7.4) and incubated for 60 min at room temperature in the dark. Ten μL/well of test compound or controls was added to the wells with the FLIPR^TETRA (Molecular Devices) and incubated for 5 minutes. Compounds were tested at eight concentrations (10, 3.16, 1, 0.316, 0.1, 0.0316, 0.01 and 0.00316 μM diluted in Tyrode's assay buffer and 0.5% DMSO, final concentration) with inter-plate duplicate data points. Subsequently, 15 μL/well of GSK1702934A agonist in Tyrode's assay buffer was added to a final concentration of 3 μM by the FLIPR^TETRA and the signal of the emitted fluorescence (Excitation: 510-545 nm, Emission: 565-625 nm) was recorded for 3 minutes. Negative and positive controls were included on each plate. Negative controls wells consisted of cells exposed to Tyrode's assay buffer and agonist solution, but no test compound. Positive control consisted of cells exposed to […] Verapamil hydrochloride (Tocris, cat. #0654) diluted in Tyrode's assay buffer and 0.5% DMSO final concentration and agonist solution. Inhibition was expressed as a percentage of control, with 0% activity being a result in which the response value of the test wells reached a level identical to the wells containing Verapamil plus GSK1702934A and 100% activity being a result in which the response value of the test wells reached a level identical to the wells containing GSK1702934A alone. Genedata Screener® 14.0.6 was used for data analysis to fit IC50 curves.

Regarding `Nc1ccc(C2CCN(C(=O)c3ccc(Oc4ccccc4)cc3)CC2)cn1` [Compound 1, 5-[1-(4-phenoxybenzoyl)piperidin-4-yl]pyridin-2-amine], in assay [1], the IC50 stood at 0.326 µM.

On to `Nc1ccc(C2CCN(C(=O)c3ccc(Oc4ccc(C(F)(F)F)cc4)cc3)CC2)nn1` [Compound 2, 6-(1-{4-[4-(trifluoromethyl)phenoxy]benzoyl}piperidin-4-yl)pyridazin-3-amine], for which the IC50 in assay [1] stood at 0.504 µM.

As to `Nc1ccc(C2CCN(C(=O)c3ccc(Oc4ccccc4)cc3)CC2)nn1` [Compound 3, 6-[1-(4-phenoxybenzoyl)piperidin-4-yl]pyridazin-3-amine], the IC50 in assay [1] was determined as 0.039 µM.

For the compound `Nc1ccc(C2CCN(C(=O)c3ccc(Oc4ccc(OC(F)(F)F)cc4)cc3)CC2)nn1` [Compound 4, 6-(1-{4-[4-(trifluoromethoxy)phenoxy]benzoyl}piperidin-4-yl)pyridazin-3-amine], in assay [1], the 50% inhibitory concentration (IC50) was determined as 0.351 µM.

Turning to `Cc1ccc(Oc2ccc(C(=O)N3CCC(c4ccc(N)nn4)CC3)cc2)cc1` [Compound 5, 6-{1-[4-(4-methylphenoxy)benzoyl]piperidin-4-yl}pyridazin-3-amine], the IC50 in assay [1] was found to be 0.372 µM.

As for `Nc1ccc(N2CCN(C(=O)c3ccc(Oc4ccc(C5CC5)cc4)cc3)CC2)nn1` [Compound 6, 6-{4-[4-(4-cyclopropylphenoxy)benzoyl]piperazin-1-yl}pyridazin-3-amine], in assay [1], the IC50 came out at 0.54 µM.

With `N#Cc1ccc(Oc2ccc(C(=O)N3CCN(c4ccc(N)nn4)CC3)cc2)cc1` [Compound 7, 4-{4-[4-(6-aminopyridazin-3-yl)piperazine-1-carbonyl]phenoxy}benzonitrile], the IC50 in assay [1] was 4.67 µM.

Take `Nc1ccc(N2CCN(C(=O)c3ccc(Oc4ccc5c(c4)OCO5)cc3)CC2)nn1` [Compound 8, 6-{4-[4-(2H-1,3-benzodioxol-5-yloxy)benzoyl]piperazin-1-yl}pyridazin-3-amine]: in assay [1], the half-inhibitory concentration (IC50) was found to be 1.23 µM.

Regarding `COc1ccc(Oc2ccc(C(=O)N3CCC(c4ccc(N)nn4)CC3)cc2)cc1` [Compound 9, 6-{1-[4-(4-methoxyphenoxy)benzoyl]piperidin-4-yl}pyridazin-3-amine], the IC50 in assay [1] was found to be 0.511 µM.

On to `Nc1ccc(C2CCN(C(=O)c3ccc(Oc4ccc(F)cc4)cc3)CC2)nn1` [Compound 10, 6-{1-[4-(4-fluorophenoxy)benzoyl]piperidin-4-yl}pyridazin-3-amine], for which the IC50 in assay [1] was determined as 0.075 µM.

Turning to `Nc1ccc(N2CCN(C(=O)c3ccc(Oc4ccc(Cl)cc4)cc3)CC2)nn1` [Compound 11, 6-{4-[4-(4-chlorophenoxy)benzoyl]piperazin-1-yl}pyridazin-3-amine], the concentration for half-maximal inhibition (IC50) in assay [1] was determined as 1.04 µM.

For `Nc1ccc(C2CCN(C(=O)c3ccc(Oc4ccc(C5CC5)cc4)cc3)CC2)nn1` [Compound 12, 6-{1-[4-(4-cyclopropylphenoxy)benzoyl]piperidin-4-yl}pyridazin-3-amine], the half-maximal inhibitory concentration (IC50) in assay [1] was 0.4 µM.

Turning to `Nc1ccc(C2CCN(C(=O)c3ccc(Oc4ccc(Cl)cc4)cc3)CC2)nn1` [Compound 13, 6-{1-[4-(4-chlorophenoxy)benzoyl]piperidin-4-yl}pyridazin-3-amine], in assay [1], the IC50 is 0.266 µM.

`CCc1ccc(Oc2ccc(C(=O)N3CCN(c4ccc(N)nc4)CC3)cc2)cc1` [Compound 14, 5-{4-[4-(4-ethylphenoxy)benzoyl]piperazin-1-yl}pyridin-2-amine]: the IC50 in assay [1] came to 0.324 µM.

For `Nc1ccc(N2CCN(C(=O)c3ccc(Oc4ccccc4)cc3)CC2)cn1` [Compound 15, 5-[4-(4-phenoxybenzoyl)piperazin-1-yl]pyridin-2-amine], the IC50 in assay [1] is 0.422 µM.

As for `CC(=O)c1ccc(Oc2ccc(C(=O)N3CCC(c4ccc(N)nn4)CC3)cc2)cc1` [Compound 16, 1-(4-{4-[4-(6-aminopyridazin-3-yl)piperidine-1-carbonyl]phenoxy}phenyl)ethan-1-one], the IC50 in assay [1] turned out to be 2.07 µM.

On to `CC(C)c1ccc(Oc2ccc(C(=O)N3CCC(c4ccc(N)nn4)CC3)cc2)cc1` [Compound 17, 6-(1-{4-[4-(propan-2-yl)phenoxy]benzoyl}piperidin-4-yl)pyridazin-3-amine], for which the IC50 in assay [1] was 2.19 µM.

`COc1cc(C(=O)N2CCC(c3nnc(N)cc3C)CC2)c(F)cc1Oc1ccc(F)cc1` [Compound 51, 6-{1-[2-Fluoro-4-(4-fluorophenoxy)-5-methoxybenzoyl]piperidin-4-yl}-5-methylpyridazin-3-amine]: the IC50 in assay [2] amounted to 0.182 µM.

For the compound `Nc1ccc([C@@H]2CCN(C(=O)c3cc(F)c(Oc4ccc(F)cc4)cc3F)[C@H](CO)C2)nn1` [Compound 52b, [(2S,4R)-4-(6-Aminopyridazin-3-yl)-1-[2,5-difluoro-4-(4-fluorophenoxy)benzoyl]piperidin-2-yl]methanol], the IC50 in assay [2] was 0.08 µM.

On to `COc1cc(N)ncc1C1CCN(C(=O)c2ccc(OCc3ccon3)cc2F)CC1` [Compound 53, 5-(1-{2-Fluoro-4-[(1,2-oxazol-3-yl)methoxy]benzoyl}piperidin-4-yl)-4-methoxypyridin-2-amine], for which the IC50 in assay [2] worked out at 0.641 µM.

Consider `COc1cc(N)ncc1C1CCN(C(=O)c2ccc(OCc3nccs3)cc2F)CC1` [Compound 54, 5-(1-{2-Fluoro-4-[(1,3-thiazol-2-yl)methoxy]benzoyl}piperidin-4-yl)-4-methoxypyridin-2-amine], for which, in assay [2], the IC50 is 1.19 µM.
